Experimental data from patent US6372737B1 (priority 1996, dated 2002).

Key:
Format in all cases: in vivo
Pyrenophora teres = Pyrenophora teres test (barley)/curative; conditions: application rate 6.25 g/ha, curative, 7 days after inoculation
Description: (§1) Solvent: 25 parts by weight of N,N-dimethylacetamide
(§2) Emulsifier: 0.6 part by weight of alkylaryl polyglycol ether
(§3) To produce a suitable preparation of active compound, 1 part by weight of active compound or active compound combination is mixed with the stated amounts of solvent and emulsifier, and the concentrate is diluted with water to the desired concentration.
(§4) To test for curative activity, young plants are sprayed with a conidia suspension of Pyrenophora teres. The plants remain in an incubation cabin at 20° C. and 100% relative atmospheric humidity for 48 hours. The plants are subsequently sprayed with the preparation of active compound at the stated application rate.
The plants are placed in a greenhouse at a temperature of about 20° C. and a relative atmospheric humidity of about 80%.
(§5) Evaluation is carried out 7 days after the inoculation. 0% means an efficacy which corresponds to that of the control, whereas an efficacy of 100% means that no infection is observed.

[1] = system: Erysiphe graminis f.sp. hordei; assay: Erysiphe test (barley)/curative; conditions: curative, 7 days after inoculation
Description: as §1, §2, §3
To test for curative activity, young plants are dusted with spores of Erysiphe graminis f.sp. hordei. 48 hours after the inoculation, the plants are sprayed with the preparation of active compound at the stated application rate.
(§6) The plants are placed in a greenhouse at a temperature of about 20° C. and a relative atmospheric humidity of about 80%, in order to promote the development of mildew pustules.
as §5

Leptosphaeria nodorum [2] = assay: Leptosphaeria nodorum test (wheat)/curative; conditions: curative, 10 days after inoculation
Description: as §1, §2, §3
as §4, with “Leptosphaeria nodorum.” for “Pyrenophora teres.”, “hours and” for “hours. The plants”, “then” for “subsequently”
The plants are placed in a greenhouse at a temperature of about 15° C. and a relative atmospheric humidity of about 80%.
(§7) Evaluation is carried out 10 days after the inoculation. 0% means an efficacy which corresponds to that of the control, whereas an efficacy of 100% means that no infection is observed.

Botrytis cinerea = assay: Botrytis test (beans)/protective; conditions: 48 h, application rate 50 g/ha, protective, two days after inoculation, read-out: % efficacy
Description: To test for protective activity, young plants are sprayed with the commercial active compound preparation at the stated application rate. After the spray coating has dried on, 2 small pieces of agar covered with Botrytis cinerea are placed on each leaf. The inoculated plants are placed in a darkened chamber at about 20° C. and 100% relative atmospheric humidity.
Two days after the inoculation, the size of the infected spots on the leaves is evaluated. 0% means an efficacy corresponding to that of the control, and an efficacy of 100% means that no infection is observed.

Fusarium nivale = Fusarium nivale test (triticale)/seed treatment; conditions: dry seed dressing, about 3 weeks after sowing
Description: About 3 weeks after sowing, the plants are evaluated for symptoms of snow mould.

Sphaerotheca fuliginea = assay: Sphaerotheca test (cucumber)/protective; conditions: Podosphaera fuliginea, 240 h, application rate 2.5 g/ha, protective, 10 days after inoculation, read-out: % efficacy
Description: To test for protective activity, young plants are sprayed with the commercial active compound preparation at the stated application rate. After the spray coating has dried on, the plants are inoculated with an aqueous spore suspension of Sphaerotheca fuliginea. The plants then remain in a greenhouse at about 23° C. and about 70% relative atmospheric humidity.
Evaluation is carried out 10 days after the inoculation. 0% means an efficacy corresponding to that of the control, and an efficacy of 100% means that no infection is observed.

Puccinia recondita [3] = assay: Puccinia test (wheat)/protective; conditions: Puccinia recondita, 240 h, application rate 6.25 g/ha, protective, 10 days after inoculation, read-out: Efficacy in %
Description: as §1, §2, §3
(§8) To test for protective activity, young plants are sprayed with the preparation of active compound at the stated application rate. After the spray coating has dried on, the plants are sprayed with a conidia suspension of Puccinia recondita. The plants remain in an incubation cabin at 20° C. and 100% relative atmospheric humidity for 48 hours.
The plants are then placed in a greenhouse at a temperature of about 20° C. and a relative atmospheric humidity of 80%, in order to promote the development of rust pustules.
as §7

[4] = system: Erysiphe graminis fsp. tritici; assay: Erysiphe test (wheat)/protective; conditions: protective, 7 days after inoculation
Description: as §1, §2, §3
To test for protective activity, young plants are sprayed with the preparation of active compound at the stated application rate.
After the spray coating has dried on, the plants are dusted with spores of Erysiphe graminis fsp. tritici.
as §6, §5

Leptosphaeria nodorum [5] = assay: Leptosphaeria nodorum test (wheat)/protective; conditions: Parastagonospora nodorum, 240 h, application rate 6.25 g/ha, protective, 10 days after inoculation, read-out: Efficacy in %
Description: as §1, §2, §3
as §8, with “spore” for “conidia”, “Leptosphaeria nodorum.” for “Puccinia recondita.”, “20EC” for “20° C.”
The plants are placed in a greenhouse at a temperature of about 15° C. and a relative atmospheric humidity of 80%.
as §7

Rhizoctonia solani = Rhizoctonia solani test (cotton)/seed treatment; conditions: application rate 75 mg/kg of seed, dry seed dressing, after 8 days
Description: The active compounds are applied as dry seed dressing. This is prepared by extending the respective active compound with ground mineral to give a finely pulverulent mixture which ensures uniform distribution on the seed surface.
To dress the seed, the infected seed together with the seed dressing is shaken for 3 minutes in a sealed glass flask.
2×50 corns of seed are sown at a depth of 2 cm into standard soil which is infected with Rhizoctonia solani, and the seeds are cultivated in a greenhouse at a temperature of about 22° C. in seed trays which receive a light regimen of 15 hours per day.
Evaluation is carried out after 8 days. 0% means an efficacy which corresponds to that of the untreated control, while an efficacy of 100% means that no disease is observed.

Phytophthora infestans = assay: whole plant or invertebrate; conditions: Phytophthora infestans, in Solanum lycopersicum, 72 h, read-out: % efficacy
Puccinia recondita [6] = assay: Puccinia test (wheat)/curative; conditions: application rate 6.25 g/ha, curative, 10 days after inoculation
Description: as §1, §2, §3
as §4, with “Puccinia recondita.” for “Pyrenophora teres.”
The plants are placed in a greenhouse at a temperature of about 20° C. and a relative atmospheric humidity of about 80%, in order to promote the development of rust pustules.
as §7

[7] = system: Erysiphe graminis f.sp. tritici; assay: Erysiphe test (wheat)/curative; conditions: curative, 7 days after inoculation
Description: as §1, §2, §3
To test for curative activity, young plants are dusted with spores of Erysiphe graminis f.sp. tritici. 48 hours after the inoculation, the plants are sprayed with the preparation of active compound at the stated application rate.
as §6, §5

Work on CON=C(C1=NOCCO1)c1ccccc1Oc1ncnc(Oc2ccccc2Cl)c1F [(I)] yielded an Efficacy in % (Pyrenophora teres) of 0%, an Efficacy in % ([1]; application rate 6.25 g/ha) of 0% and an Efficacy in % ([1]; application rate 12.5 g/ha) of 33%. It also gave an Efficacy in % ([1]; application rate 25 g/ha) of 75%, an Efficacy in % (Leptosphaeria nodorum [2]; application rate 6.25 g/ha) of 62% and an Efficacy in % (Leptosphaeria nodorum [2]; application rate 12.5 g/ha) of 62%. For the same compound, the Emax at 50 g/ha (Botrytis cinerea) was 15%, the Efficacy in % (Fusarium nivale; application rate 25 mg/kg of seed) was 89% and the Efficacy in % (Fusarium nivale; application rate 75 mg/kg of seed) was 93%. It also gave an Emax at 2.5 g/ha (Sphaerotheca fuliginea) of 22%, a pest or weed control at 6.25 g/ha (Puccinia recondita [3]) of 81% and an Efficacy in % ([4]; application rate 6.25 g/ha) of 0%. It also gave an Efficacy in % ([4]; application rate 12.5 g/ha) of 29%, an Efficacy in % ([4]; application rate 25 g/ha) of 79% and a pest or weed control at 6.25 g/ha (Leptosphaeria nodorum [5]) of 25%. It also gave an Efficacy in % (Rhizoctonia solani) of 16%, an Emax at 0.5 g/ha (Phytophthora infestans) of 9% and an Emax at 1 g/ha (Phytophthora infestans) of 20%. For the same compound, the Emax at 5 g/ha (Phytophthora infestans) was 45%, the Efficacy in % (Puccinia recondita [6]) was 67% and the Efficacy in % ([7]; application rate 6.25 g/ha) was 0%. It also gave an Efficacy in % ([7]; application rate 25 g/ha) of 33%.
